Measurements from patent EP3727588B1, “ACTIVATOR PEPTIDES OF THE ENZYME ADAM 10 AND RELATED USES IN THE TREATMENT OF ALZHEIMER'S DISEASE” (UNIVERSITA' DEGLI STUDI DI MILANO, priority 2017, dated 2019).
Peptide text beside a SMILES is read from it.

Assays:
[1] = tested on: T1, ADAM10/AP2 complex (Rattus norvegicus); assay: co-immunoprecipitation of ADAM10 with AP2 (α-adaptin) in acute hippocampal slices; assay type: cell-based; conditions: 10 µM, 30 min
T1 construct: endogenous in cells; host or cells: primary hippocampal neurons of rat embryos, DIV14
T1 sequence (P18484 whole entry): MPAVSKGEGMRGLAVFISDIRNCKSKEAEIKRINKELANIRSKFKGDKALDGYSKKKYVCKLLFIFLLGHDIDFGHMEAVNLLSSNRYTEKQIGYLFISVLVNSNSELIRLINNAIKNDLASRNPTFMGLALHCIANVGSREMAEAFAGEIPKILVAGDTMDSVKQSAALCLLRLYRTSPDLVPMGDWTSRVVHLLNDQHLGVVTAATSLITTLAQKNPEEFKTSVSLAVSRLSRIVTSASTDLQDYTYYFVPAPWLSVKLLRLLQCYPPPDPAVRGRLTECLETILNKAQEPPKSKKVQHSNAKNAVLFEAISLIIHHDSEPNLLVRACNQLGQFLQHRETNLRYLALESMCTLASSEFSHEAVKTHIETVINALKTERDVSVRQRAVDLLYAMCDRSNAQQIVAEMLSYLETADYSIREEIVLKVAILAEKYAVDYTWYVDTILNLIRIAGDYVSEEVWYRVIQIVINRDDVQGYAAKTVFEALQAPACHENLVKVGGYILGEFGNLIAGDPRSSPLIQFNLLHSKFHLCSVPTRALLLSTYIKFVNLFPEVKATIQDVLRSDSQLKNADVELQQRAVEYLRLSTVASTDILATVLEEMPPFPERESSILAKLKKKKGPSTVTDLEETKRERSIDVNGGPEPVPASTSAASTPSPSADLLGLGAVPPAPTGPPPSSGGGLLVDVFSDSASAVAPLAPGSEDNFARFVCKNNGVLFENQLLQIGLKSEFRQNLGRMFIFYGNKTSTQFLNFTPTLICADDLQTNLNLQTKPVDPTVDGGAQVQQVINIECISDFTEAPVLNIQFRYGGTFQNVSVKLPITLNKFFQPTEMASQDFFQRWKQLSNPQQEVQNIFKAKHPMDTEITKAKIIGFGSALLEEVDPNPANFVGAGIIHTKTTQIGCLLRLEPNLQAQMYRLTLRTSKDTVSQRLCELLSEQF
T1 sequence (P62744 whole entry, further chain): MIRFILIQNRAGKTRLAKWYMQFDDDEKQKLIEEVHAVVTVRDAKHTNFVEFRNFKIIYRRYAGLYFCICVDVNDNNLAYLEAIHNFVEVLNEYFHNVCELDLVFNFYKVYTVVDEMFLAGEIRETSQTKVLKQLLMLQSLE
T1 sequence (P84092 whole entry, further chain): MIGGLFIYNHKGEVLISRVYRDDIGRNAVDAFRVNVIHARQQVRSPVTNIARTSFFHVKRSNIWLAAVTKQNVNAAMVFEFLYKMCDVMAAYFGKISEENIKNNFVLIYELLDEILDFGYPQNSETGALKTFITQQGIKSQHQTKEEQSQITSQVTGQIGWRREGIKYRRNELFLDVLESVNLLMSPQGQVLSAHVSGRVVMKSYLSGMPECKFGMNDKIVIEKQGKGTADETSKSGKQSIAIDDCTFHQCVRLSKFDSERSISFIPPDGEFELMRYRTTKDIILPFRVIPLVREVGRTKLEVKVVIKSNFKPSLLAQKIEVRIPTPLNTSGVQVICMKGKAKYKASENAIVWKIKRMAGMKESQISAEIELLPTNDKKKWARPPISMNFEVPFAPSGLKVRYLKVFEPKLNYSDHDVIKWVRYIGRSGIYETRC
T1 sequence (P62944 whole entry, further chain): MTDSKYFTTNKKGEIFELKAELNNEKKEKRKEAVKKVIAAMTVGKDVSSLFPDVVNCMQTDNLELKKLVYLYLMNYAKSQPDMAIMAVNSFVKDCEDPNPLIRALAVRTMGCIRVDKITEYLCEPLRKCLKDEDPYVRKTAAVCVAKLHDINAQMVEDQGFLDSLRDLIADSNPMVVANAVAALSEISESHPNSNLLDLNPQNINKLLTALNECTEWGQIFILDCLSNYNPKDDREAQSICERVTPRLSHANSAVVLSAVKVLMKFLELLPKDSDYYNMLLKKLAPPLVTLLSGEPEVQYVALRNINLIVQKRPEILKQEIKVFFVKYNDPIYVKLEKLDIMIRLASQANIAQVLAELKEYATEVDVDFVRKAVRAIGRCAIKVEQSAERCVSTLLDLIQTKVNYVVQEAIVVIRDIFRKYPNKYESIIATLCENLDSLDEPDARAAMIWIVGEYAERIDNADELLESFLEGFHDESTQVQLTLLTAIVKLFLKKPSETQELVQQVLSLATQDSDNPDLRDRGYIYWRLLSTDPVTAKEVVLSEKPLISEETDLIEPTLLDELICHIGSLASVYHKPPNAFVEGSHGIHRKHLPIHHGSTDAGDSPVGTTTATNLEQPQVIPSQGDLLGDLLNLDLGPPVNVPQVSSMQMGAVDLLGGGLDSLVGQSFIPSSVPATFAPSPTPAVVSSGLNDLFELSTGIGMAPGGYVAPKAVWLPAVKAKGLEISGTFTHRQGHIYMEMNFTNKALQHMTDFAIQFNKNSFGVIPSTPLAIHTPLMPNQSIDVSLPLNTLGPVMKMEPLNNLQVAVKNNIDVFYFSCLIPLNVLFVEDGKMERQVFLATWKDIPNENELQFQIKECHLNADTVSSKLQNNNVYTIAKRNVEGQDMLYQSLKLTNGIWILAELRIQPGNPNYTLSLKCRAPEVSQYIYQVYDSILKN
Experimental: (§1) The acute hippocampal slices were obtained from rat brain. After carefully removing the meninges, the hippocampus was isolated and dissected using the McIlwain tissue chopper. The hippocampal slices were then transferred into supports containing Krebs buffer, in the presence of a constant flow of 95% O2 and 5% CO2 5% (v/v). The acute slices were kept for 45 min at ambient temperature before proceeding with treatment with the peptide.
(§2) For the treatments of the acute hippocampal slices, all the peptides were diluted in Krebs buffer at a concentration of 10µM. The treatments were performed for 30 minutes and subsequently the sample was immediately frozen.
(§3) For the co-immunoprecipitation experiments, aliquots of 40-100 µg of lysate were incubated at 4°C in RIA 1X buffer (NaCl 200 mM, EDTA 10 mM, Na2HPO4 10 mM, Nonidet P-40, 0.5% and 0.1% SDS) in a final volume of 150 µl with 1-2 µg of antibody. The following day the protein complex A/G (Santa Cruz Biotechnology) was added, conjugated with agarose marbles, and the incubation was continued for 2 hours. After three washes with RIA buffer the samples were loaded onto SDS-PAGE and analysed through Western Blot.
(§4) The quantization of the Western Blot analyses was performed through an image analysis program (ImageLab -BioRad). The levels of proteins were expressed as optical density (OD) related to the different measurements and were normalized on respective tubulin levels.
(§5) The samples were then processed, and the total homogenate was used to evaluate the interaction levels between ADAM10 and the complex AP2. The co-immunoprecipitation experiment (co-IP), performed using an anti-ADAM10 antibody, made it possible to verify that two of the three peptides (PEP2 (SEQ ID NO:2) and PEP3 (SEQ ID NO:1)) were able to interfere with the interaction between ADAM10 and α-adaptin, one of the subunits that constitutes the complex AP2 (Figure 1A).

[2] = molecular target: T2, ADAM10/AP2 complex (Rattus norvegicus, UniProt P62944); assay: as above; assay type: cell-based; conditions: 10 µM, 30 minutes
T2 construct: endogenous in cells; host or cells: primary hippocampal neurons of rat embryos, DIV14
T2 sequence (P18484 whole entry): as the sequence (P18484 whole entry) above
T2 sequence (P62744 whole entry, further chain): as the sequence (P62744 whole entry, further chain) above
T2 sequence (P84092 whole entry, further chain): as the sequence (P84092 whole entry, further chain) above
T2 sequence (P62944 whole entry): as the sequence (P62944 whole entry, further chain) above
Experimental: as §1, §2, §3, §4, §5

[3] = molecular target: T2, ADAM10/AP2 complex; assay: co-immunoprecipitation of ADAM10 with AP2 subunits in primary cultures of hippocampal neurons; assay type: cell-based
Experimental: The primary cultures were prepared from hippocampi of rat embryos as described in [20]. The cultures were grown in media containing Neurobasal (Life Technologies), B27 2% (Life Technologies), GlutaMAX 1% (Life Technologies) and Penicillin/Streptomycin 1% (Pen/Strep; Life Technologies), a 37 °C with 95% humidity and 5% CO2 for 14 days. The cells were treated by diluting the peptides in the complete growth medium, at a final concentration of 1 µM. The treatment was performed for 30 minutes at 37°C, then the neurons were lysed.
as §3, §4
After 30 minutes, the cells were processed and the cell lysate was used for performing the co-IP analyses.

[4] = blood-brain barrier crossing, anti-TAT immunohistochemistry on coronal brain sections; assay type: in vivo; conditions: C57BL/6 mice, intraperitoneal injection 3 nmoles/g, 24 hours
Experimental: For the immunohistochemistry analyses, mice treated with the peptide were anaesthetized deeply and subjected to transcardial perfusion with 4% paraformaldehyde (prepared in PBS, pH 7.2-7.4), through the use of a peristaltic pump. The fixing liquid was inserted into the blood circulation through the left ventricle and after 10 minutes the brain was isolated. The sample was then post-fixed for 1 hour and 30 minutes at 4°C, then washed with PBS 1X and placed o/n in a 30% sucrose solution. The following day the sample was washed again with PBS 1X cut with the vibratome obtaining coronal sections of 50µm. Then the sections were stained through free-floating immunofluorescence technique. The fluorescence images were acquired using the Zeiss Confocal LSM510 Meta system with 63x objective at a resolution of 1024x1024 pixels. […]
The coronal sections were incubated with a specific antibody for the identification of the MAP2 neurons, and an antibody able to recognize the TAT sequence of HIV-1 present in the CPPs. As shown by the arrows in Figure 6, the presence of a specific signal of the anti-TAT antibody can be identified, which can only be detected in the coronal sections of brain of animals treated with CPPs. […] In the brain of animals only treated with saline solution (Figure 6, panel A), such signal cannot be detected.

[5] = primary hippocampal neurons DIV 14, 1 µM, 30 minutes

In the case of `CC(C)C[C@H](NC(=O)[C@H](CCCNC(=N)N)NC(=O)[C@@H]1CCCN1C(=O)[C@H](CCCNC(=N)N)NC(=O)[C@H](CCC(N)=O)NC(=O)[C@H](CCCNC(=N)N)NC(=O)[C@@H]1CCCN1C(=O)[C@@H]1CCCN1C(=O)[C@H](CC(C)C)NC(=O)CNC(=O)[C@H](CO)NC(=O)CNC(=O)CNC(=O)[C@H](CCCNC(=N)N)NC(=O)[C@H](CCCNC(=N)N)NC(=O)[C@H](CCCNC(=N)N)NC(=O)[C@H](CCC(N)=O)NC(=O)[C@H](CCCNC(=N)N)NC(=O)[C@H](CCCNC(=N)N)NC(=O)[C@H](CCCCN)NC(=O)[C@H](CCCCN)NC(=O)[C@H](CCCNC(=N)N)NC(=O)CNC(=O)[C@@H](N)Cc1ccc(O)cc1)C(=O)O` [PEP2] (H-YGRKKRRQRRRGGSGLPPRQRPRL-OH), the “PEP/inPEP ratio of optical density (OD), ADAM10/AP2 complex (α-adaptin)” value [1] was 41.60 ± 23.86%, the “reduction of the interaction between ADAM10 and α-adaptin” value [2] was 58.4% and the “PEP/inPEP OD, ADAM10/AP2 complex, µ2” value ([3]; primary cultures of neurons, 1µM, 30 min) was 52.01 ± 3.77%. The “reduction in the levels of interaction between ADAM10 and the complex AP2, subunit µ2” value [3, 5] was 48%, the “reduction in the levels of interaction between ADAM10 and the complex AP2, subunit α-adaptin” value [3, 5] was 66% and the “capacity to cross the blood-brain barrier (BBB)” value [4] was “can cross the BBB and penetrate into the neuron cells”.
